# Reference: article PMC10436493, “Unveiling the antitumor potential of novel N-(substituted-phenyl)-8-methoxycoumarin-3-carboxamides as dual inhibitors of VEGFR2 kinase and cytochrome P450 for targeted treatment of hepatocellular carcinoma” (Frontiers in Chemistry, 2023)
# Where two headings read alike, the source gives them in different places.
# Assays:
# [1] = system: human liver carcinoma HepG2 cell line; experiment: MTT cytotoxicity assay on liver cancer cells; format: cell-based; settings: 24 h treatment
# Description: Toward this, the HepG-2 cells were cultured and treated with tested compounds at different concentrations for 24 h and subsequently 3-(4,5-dimethylthiazol-2-yl)-2,5-diphenyltetrazolium bromide (MTT) dye was added. The colorimetric measurement was assessed using an ELISA plate reader at a wavelength of 570 nm.
# Following this initial incubation period, the cells were exposed to varying concentrations of the synthesized compounds. The concentrations may have ranged from a lower to higher dose, depending on the experimental design. The molecules were dissolved in an appropriate solvent, DMSO, to obtain the desired concentrations. Control wells with no drug treatment were also included. […] The duration of the incubation may have varied depending on the specific experimental requirements. At the end of the 24-h treatment, (3-(4,5-dimethylthiazol-2-yl)-2,5-diphenyltetrazolium bromide) MTT dye was added to each well. MTT is a yellow tetrazolium salt that is utilized by metabolically active cells and converted into purple formazan crystals by mitochondrial enzymes in viable cells. […] DMSO is a common solvent used to dissolve the formazan crystals and extract the intracellular purple product. The plate was then subjected to colorimetric measurement using an ELISA plate reader at a wavelength of 570 nm. The intensity of the purple color is proportional to the number of viable cells and reflects the growth condition of the cells in each well. The results were analyzed by calculating the percentage of cell viability or cell growth inhibition compared to the control wells. […] The experiments were performed with at least three replicates for each concentration, and the entire experiment was repeated at least three times to ensure the reliability of the results.
# CYP2D6 = CYP2D6 (Homo sapiens, UniProt P10635)
# CYP2D6, sequence (P10635 whole entry): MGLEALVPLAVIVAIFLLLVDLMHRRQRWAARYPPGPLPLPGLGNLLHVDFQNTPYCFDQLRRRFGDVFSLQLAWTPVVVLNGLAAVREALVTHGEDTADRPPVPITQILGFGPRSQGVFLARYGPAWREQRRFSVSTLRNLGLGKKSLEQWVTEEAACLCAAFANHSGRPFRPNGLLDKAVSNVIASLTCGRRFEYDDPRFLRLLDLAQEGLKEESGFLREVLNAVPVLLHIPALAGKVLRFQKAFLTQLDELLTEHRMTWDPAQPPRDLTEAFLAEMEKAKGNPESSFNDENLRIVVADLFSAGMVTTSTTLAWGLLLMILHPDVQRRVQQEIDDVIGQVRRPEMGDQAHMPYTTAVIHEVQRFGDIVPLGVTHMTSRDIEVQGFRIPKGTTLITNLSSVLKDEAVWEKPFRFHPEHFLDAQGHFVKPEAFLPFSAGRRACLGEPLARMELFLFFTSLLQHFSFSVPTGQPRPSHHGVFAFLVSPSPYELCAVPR
# Description: Human cells, obtained from the American Type Culture Collection (ATCC), were cultivated in RPMI medium (Invitrogen/Life Technologies). The medium was supplemented with 1% penicillin-streptomycin, 10 μg/ml of insulin (Sigma), and to support cell growth and 10% Fetal Bovine Serum (FBS) (Hyclone) viability. […] Cells were seeded into a 96-well plate at a density of 1.2–1.8 × 10,000 cells/well in a volume of 100 μL of complete growth medium. […] Each concentration was tested in triplicate. A control well with only complete growth medium was included as a negative control. […] The culture media was quickly withdrawn, and the cultured cells were rinsed with PBS. […] After the incubation, the fluorescence intensity of the converted product was measured using a FLx800™ Fluorescence Microplate Reader at the excitation wavelength of 390 nm and the emission wavelength of 488 nm. […] The data were analyzed for statistical significance and presented as mean ± standard deviation (SD) from triplicate measurements.
# VEGFR-2 = target: T1, VEGFR-2 (Homo sapiens, UniProt P35968); experiment: VEGFR-2 ELISA assay; format: cell-based
# T1 construct: ability to target the VEGFR-2 receptor inHep-G2 cells; endogenous in cells; host or cells: Hep-G2
# T1 sequence (P35968 20-1356): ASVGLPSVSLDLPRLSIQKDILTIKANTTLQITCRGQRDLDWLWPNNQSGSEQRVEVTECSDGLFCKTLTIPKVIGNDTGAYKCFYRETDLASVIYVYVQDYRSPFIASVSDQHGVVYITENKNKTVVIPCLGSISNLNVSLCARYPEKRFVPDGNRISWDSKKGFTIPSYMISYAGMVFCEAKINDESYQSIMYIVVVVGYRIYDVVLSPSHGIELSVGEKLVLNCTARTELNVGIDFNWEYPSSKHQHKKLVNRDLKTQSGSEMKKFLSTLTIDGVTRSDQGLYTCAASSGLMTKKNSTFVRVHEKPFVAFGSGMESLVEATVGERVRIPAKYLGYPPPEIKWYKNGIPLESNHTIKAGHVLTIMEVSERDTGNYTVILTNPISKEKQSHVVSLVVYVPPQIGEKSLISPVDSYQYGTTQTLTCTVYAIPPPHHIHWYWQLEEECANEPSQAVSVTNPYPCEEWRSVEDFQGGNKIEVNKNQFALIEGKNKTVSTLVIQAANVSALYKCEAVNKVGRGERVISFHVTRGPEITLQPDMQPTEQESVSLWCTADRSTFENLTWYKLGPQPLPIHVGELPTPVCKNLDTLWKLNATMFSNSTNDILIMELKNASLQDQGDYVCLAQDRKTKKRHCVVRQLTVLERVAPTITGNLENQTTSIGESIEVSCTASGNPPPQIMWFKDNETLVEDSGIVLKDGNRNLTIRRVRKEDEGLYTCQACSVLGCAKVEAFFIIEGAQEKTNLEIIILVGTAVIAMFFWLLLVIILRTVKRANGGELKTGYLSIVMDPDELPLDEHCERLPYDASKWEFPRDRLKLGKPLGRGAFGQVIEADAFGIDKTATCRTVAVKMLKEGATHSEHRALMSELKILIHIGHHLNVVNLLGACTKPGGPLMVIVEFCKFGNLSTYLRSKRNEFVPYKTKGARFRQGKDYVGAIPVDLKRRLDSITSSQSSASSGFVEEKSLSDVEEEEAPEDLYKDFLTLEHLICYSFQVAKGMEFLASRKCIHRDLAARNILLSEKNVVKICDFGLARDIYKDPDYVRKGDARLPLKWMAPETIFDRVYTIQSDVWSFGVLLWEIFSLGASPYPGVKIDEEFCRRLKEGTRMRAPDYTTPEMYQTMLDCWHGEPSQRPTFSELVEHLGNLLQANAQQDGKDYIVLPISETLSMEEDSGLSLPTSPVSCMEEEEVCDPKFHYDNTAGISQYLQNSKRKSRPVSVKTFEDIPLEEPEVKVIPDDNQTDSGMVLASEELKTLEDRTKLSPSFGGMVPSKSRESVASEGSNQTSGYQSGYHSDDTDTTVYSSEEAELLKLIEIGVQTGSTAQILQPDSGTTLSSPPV
# Description: A 96-well plate was used for the assay, and each well was filled with a specific volume of the tested molecules and standard concentrations. The wells were coated with an immobilized antibody that specifically binds to VEGFR-2. After incubation, the wells were washed to remove unbound molecules, and biotinylated anti-human VEGFR-2 antibody was added to the wells. This biotinylated antibody specifically binds to VEGFR-2 that is captured by the immobilized antibody. Following another round of washing, a solution of conjugated streptavidin, which binds to the biotinylated antibody, was added to the wells. […] During this incubation, the bound conjugated streptavidin transformed the substrate into a colorful product. After terminating the reaction with an inhibitor solution, the optical density of the produced color was instantly determined at 450 nm with a spectrophotometer.
# HepG-2 cells [2] = experiment: Annexin V-FITC/PI apoptosis assay; format: cell-based, human
# Description: The Annexin V-FITC/PI assay is a well-established flow cytometric method to evaluate the apoptotic potential of bioactive compounds. The assay allows differentiation between apoptotic cells and live cells by using fluorescent dyes that bind to phosphatidylserine (PS) and DNA, respectively ([Galluzzi et al., 2018]; [Pfeffer and Singh, 2018]; [Tong et al., 2022]). In the present study, the assay was performed to explore the apoptotic effect of compound 7 (at its IC50 dose value) on HepG-2 cells. […] The Annexin V-FITC/PI assay is a well-established method to evaluate the apoptotic potential of chemical compounds. Inducing apoptosis is an appealing therapeutic approach for cancer treatment as it is a vital cellular process essential for preserving tissue balance and removing impaired or unnecessary cells. Disruption in the regulation of apoptosis can contribute to various diseases, such as cancer, highlighting its significance. […] The early stage of apoptosis is characterized by the translocation of PS from the inner to the outer leaflet of the plasma membrane, which can be detected by Annexin V-FITC staining. […] Further, the late stage of apoptosis is characterized by DNA fragmentation, which can be detected by PI staining. […] According to these findings, there is a notable connection between the ability of compound 7 to induce programmed cell death in HepG-2 cells and its antiproliferative effects.
# The experimental method involved seeding HepG-2 cells at a density of 1.5 × 10^5 cells per well in a 6-well plate and incubating the cells for 12 h to allow for cell attachment and growth. Following this, the cells were treated with compound 7 at its IC50 concentration for 24 h to induce apoptosis. Apoptosis, a programmed cell death process, was detected by staining the cells with Annexin-V conjugated to fluorescein isothiocyanate (FITC) and Propidium Iodide (PI), and the stained cells were analyzed using a FACSCalibur cytometer and Cellquest software (BD Bioscience). Annexin-V is a protein that binds specifically to phosphatidylserine, a phospholipid that is externalized on the outer surface of the plasma membrane during early stages of apoptosis. FITC, a green-fluorescent dye conjugated to Annexin-V, is used to label the apoptotic cells. PI, a red-fluorescent DNA intercalating agent, is used to distinguish between apoptotic and necrotic cells based on their DNA content. The FACSCalibur cytometer is a flow cytometer used to analyze and quantify fluorescently labeled cells. The experimental method likely allowed for the quantification of apoptotic cells by analyzing the Annexin-V-FITC and PI staining patterns using flow cytometry. The results obtained from this method provided information on the induction of apoptosis by compound 7 in HepG-2 cells, further elucidating the mechanism of action of this compound as a potential anticancer agent. To ensure the reliability of the results, the experimental conditions were repeated at least three times, and the cells were exposed to therapeutically effective concentration of the compound, they were treated with compound 7 at a dose corresponding to its IC50 concentration. This ensured that the cells were subjected to an optimal concentration of the compound during the experiment. This experimental method yielded crucial information on the mechanism by which it exerts its anticancer effects.
# HL-7702 normal cell line = experiment: MTT cytotoxicity assay on normal liver cells; format: cell-based; settings: Homo sapiens, L02, 24 h treatment
# Description: Following this initial incubation period, the cells were exposed to varying concentrations of the synthesized compounds. The concentrations may have ranged from a lower to higher dose, depending on the experimental design. The molecules were dissolved in an appropriate solvent, DMSO, to obtain the desired concentrations. Control wells with no drug treatment were also included. […] The duration of the incubation may have varied depending on the specific experimental requirements. At the end of the 24-h treatment, (3-(4,5-dimethylthiazol-2-yl)-2,5-diphenyltetrazolium bromide) MTT dye was added to each well. MTT is a yellow tetrazolium salt that is utilized by metabolically active cells and converted into purple formazan crystals by mitochondrial enzymes in viable cells. […] DMSO is a common solvent used to dissolve the formazan crystals and extract the intracellular purple product. The plate was then subjected to colorimetric measurement using an ELISA plate reader at a wavelength of 570 nm. The intensity of the purple color is proportional to the number of viable cells and reflects the growth condition of the cells in each well. The results were analyzed by calculating the percentage of cell viability or cell growth inhibition compared to the control wells. […]
# HepG-2 cells [3] = experiment: Cell cycle analysis by DNA flow cytometry (PI staining); format: cell-based, human; settings: HepG-2, compound at IC50 (0.75 µM), 24 h
# Description: Based on this promising activity, compound 7 was selected for further evaluation to assess its effect on the cell cycle profile in HepG-2 cells. To evaluate the cell cycle, a biparametric cytofluorimetric analysis was conducted on HepG-2 cells treated with compound 7 at its IC50 concentration for a duration of 24 h. Propidium iodide (PI) was used as the staining agent for this analysis. (Figure 5). […] Similarly, the percentage of cells in the G2/M phase decreased from 11.46% in the control group to 6.4% after treatment with compound 7. In contrast, there was a notable increase in the percentage of cells in the S phase after treatment with Compound 7. […] These findings indicate that the treatment of HepG-2 cells with compound 7 leads to cell cycle arrest specifically in the S phase. This is evident from the decrease in the proportion of cells in the G1 and G2/M phases, accompanied by an increase in the percentage of cells residing in the S phase. Cell cycle arrest is a widely recognized mechanism utilized by anticancer agents to impede the excessive proliferation of cancer cells. By inducing cell cycle arrest, these agents disrupt the normal progression of the cell cycle, preventing cancer cells from dividing and multiplying uncontrollably. This therapeutic strategy helps to halt tumor growth and promotes the effectiveness of cancer treatments. The observed effects of compound 7 on the cell cycle profile of HepG-2 cells are indicative of its potential as an antitumor agent. […] Furthermore, the increase in the percentage of cells in the S phase upon treatment with Compound 7 may indicate DNA damage and activation of DNA repair mechanisms, which can contribute to the observed S phase arrest.
# HepG-2 cells were seeded in […] at a density of 3.0 × 10^5 cells per well and incubated at 37°C for 12 h to allow cell attachment and growth. After the initial incubation, the cells were treated with compound 7 at its IC50 concentration dose value for 24 h. […] Flow cytometry analysis measures the fluorescence emitted by the cells stained with PI, which correlates with the DNA content. […]
# HepG-2 cells [4] = system: HepG-2 cells; design: method as in Fayed et al., 2019; settings: ref Fayed et al., 2019; read-out: IC50, cytotoxic activity against HepG-2 cells; cited from earlier work
structure (smiles),measurement,setting,value
"COc1ccc(Br)c2cc(C(=O)Nc3cccc(O)c3)c(=O)oc12 [Compound 4, N-(3-hydroxy)phenyl 5-bromo-8-methoxycoumarin-3-carboxamide]",melting point,,289 °C
same,IC50,[1],38.3 ± 1.62 µM
"CN[C@@H]1C[C@H]2O[C@@](C)([C@@H]1OC)n1c3ccccc3c3c4c(c5c6ccccc6n2c5c31)C(=O)NC4 [STU, staurosporine, reference compound]",IC50,CYP2D6; human,70.3 µg/mL
"COc1cccc2cc(C(=O)Nc3cccc(O)c3)c(=O)[nH]c12 [Compound 7, N-(3-hydroxy)phenyl 8-methoxy-azacoumarin-3-carboxamide]",VEGFR2 protein level,"VEGFR-2; Hep-G2 cells, untreated 3,007 pg/mL","1,086 pg/mL"
same,IC50,"VEGFR-2; summary graph, read-out: Angiogensis inhibtion IC50 (Figure 10) (converted)",110 µM
same,fold increase of early apoptotic cells vs control,"HepG-2 cells [2]; HepG-2, compound at IC50",45 fold
same,fold increase of late apoptotic cells vs control,"HepG-2 cells [2]; HepG-2, compound at IC50",73 fold
same,fold increase of necrosis vs control,"HepG-2 cells [2]; HepG-2, compound at IC50",2.5 fold
same,fold increase of total apoptotic cells vs control,"HepG-2 cells [2]; HepG-2, compound at IC50",23 fold
same,"percentage of apoptotic cells, late stage","HepG-2 cells [2]; HepG-2, compound at IC50 (0.75 µM), 24 h, control 0.21%",15.34%
same,"percentage of apoptotic cells, early stage","HepG-2 cells [2]; HepG-2, compound at IC50 (0.75 µM), 24 h, control 0.55%",24.72%
same,IC50,CYP2D6,110 µM
same,fold more potent than standard staurosporin toward CYP2D6,CYP2D6,2.1 fold
same,IC50,HL-7702 normal cell line,13.7 ± 1.8 µM
same,percentage of cells in the G2/M phase,HepG-2 cells [3]; untreated control 11.46%,6.4%
same,percentage of cells in the S phase,HepG-2 cells [3]; untreated control 42.19%,54.52%
same,percentage of cells in the G1 phase,HepG-2 cells [3]; untreated control 46.35%,39.08%
same,IC50,[1],0.75 ± 0.03 µM
COc1ccc(-c2cc(-c3cc4ccccc4oc3=O)nc(NC(C)=O)c2C#N)cc1 [Compound 11],IC50,HepG-2 cells [4],4.5 µM
"COc1cccc2cc(C(=O)Nc3cccc(O)c3)c(=O)oc12 [Compound 3, N-(3-hydroxy)-phenyl 8-methoxycoumarin-3-carboxamide]",melting point,,256 °C
same,IC50,[1],3.81 ± 0.16 µM
"COc1ccc(Br)c2cc(C(=O)Nc3cccc(O)c3)c(=O)[nH]c12 [Compound 8, N-(3-hydroxy)phenyl 5-bromo-8-methoxy-azacoumarin-3-carboxamide]",melting point,,255 °C
same,IC50,[1],4.79 ± 0.2 µM
"COc1ccc(Br)c2cc(C(=O)Nc3cccc(OC(C)=O)c3)c(=O)oc12 [Compound 6, N-(3-acetoxy)phenyl 5-bromo-8-methoxycoumarin-3-carboxamide]",melting point,,205 °C
same,IC50,[1],13.4 ± 0.56 µM
